What was measured:
granzyme B [1] = test: Granzyme B protein by immunoblot in siRNA-transduced NK cells; format: cell-based, human; conditions: without or with IL-15 (10 ng/ml) 24 h
Experimental: (§1) FIGS. 3A-3E depict the results of a study showing that downregulation of Cbl-b enhances the cytotoxicity of primary human NK cells. (FIGS. 3A and 3B) Primary human NK cells transduced with Cbl-b siRNA or Scr siRNA for 24 h were stimulated without (FIG. 3A) or with (FIG. 3B) a low concentration of IL-15 (2 ng/ml) for 16 h, then co-cultured with ^51Cr labeled Molm-13, MV4-11 or EOL-1 leukemia cell lines for 4 h, followed by quantification of specific tumor cell lysis. Each experiment was repeated with 6 different normal donors. (FIG. 3C) qRT-PCR was performed to quantify the granzyme B (GZMB) mRNA levels (n=8 donors) in siRNA- and Scr siRNA-transduced primary human NK cells incubated without or with IL-15 (10 ng/ml) for 16 h. (FIG. 3D) The concentration of the granzyme B protein in the supernatants of Cbl-b siRNA- and Scr siRNA-transduced primary human NK cells incubated without (688.1 pg/ml vs 525.4 pg/ml; P=0.0232) or with IL-15 (10 ng/ml) for 24 h (8789 pg/ml vs 3397 pg/ml; P=0.0232) was measured by ELISA (n=8 donors). (FIG. 3E) The level of granzyme B protein in Cbl-b siRNA- and Scr siRNA-transduced primary human NK cells incubated without or with IL-15 (10 ng/ml) for 24 h was measured by immunoblot analysis. […]
Immunoblotting. […] Densitometric analysis was performed to quantify intensity of gel bands with Image J (National Institutes of Health). […]

granzyme B [2] = test: RNA-seq of siRNA-transduced primary human NK cells; format: cell-based; conditions: without or with IL-15 (10 ng/ml) 16 h, vs Scr siRNA
Experimental: FIGS. 4A-4D depict the results of a study showing that downregulation of Cbl-b increases IFN-γ secretion in IL-15-activated primary human NK cells. (FIG. 4A) RNAseq was conducted using primary human NK cells transduced with either Cbl-b siRNA or Scr siRNA without or with incubation in IL-15 (10 ng/ml) for 16 h (4 donors for each group). […] (FIG. 4B) qRT-PCR was performed to quantify the mRNA levels of IFN-γ (n=6 donors) after IL-15 (10 ng/ml) 6 h stimulation. (FIG. 4C) The percentage of intracellular IFN-γ+ cells in un-transduced NK cells or those transduced with Cbl-b siRNA or Scr siRNA, each activated with IL-15 (10 ng/ml) for 24 h (11.5% vs 4.338%; P=0.0008; n=5 donors). (FIG. 4D) Supernatants were collected after IL-15 (10 ng/ml) for 24 h and IFN-γ concentrations measured by ELISA (18115 pg/ml vs 882.5 pg/ml; P=0.0099; n=7 donors). Scr-scrambled; *P<0.05, **P<0.01, ***P<0.001 by Student's two-tailed paired t-test or One-way ANOVA; ns, not significant. Data presented as mean±SEM.
To further explore how Cbl-b regulates the functions of primary human NK cells, we performed RNA-seq analyses using enriched primary NK cells from healthy donors transduced with Cbl-b siRNA or Scr siRNA without or with IL-15 treatment for 16 h (n=4 in each group). […]

granzyme B [3] = test: Granzyme B (GZMB) mRNA by qRT-PCR in siRNA-transduced NK cells; format: cell-based, human; conditions: without or with IL-15 (10 ng/ml) 16 h, vs Scr siRNA
Experimental: as §1, with “analysis. The data are representative of three experiments. Scr-scrambled; *P<0.05, **P<0.01, ***P<0.001, ****P<0.0001 by One-way or Two-way ANOVA; ns, not significant.” for “analysis.”

“Cbl-b siRNA: Cbl-b-specific Accell siRNA (Dharmacon), SEQ ID NO:1, CCUUCAUGUUCAGAUGGUU (Accell modified siRNA, pattern not given here)” was tested, and the “total GZMB protein” value (granzyme B [1]) was “increase of total GZMB protein”, the “transcriptional level of granzyme B (RNA-seq)” value (granzyme B [2]) was “increased” and the “Granzyme B mRNA” value (granzyme B [3]) was “significantly increased”.

Reference: patent US20240299542A1, “NATURAL KILLER CELLS ENGINEERED TO REDUCE OR ELIMINATE CBL-B AND USES THEREOF” (City of Hope, priority 2021, published 2024)
